Experimental data as given in ChEMBL document CHEMBL4024706 (Eur J Med Chem, 2017).

Experiments:
[1] = target: RAC-gamma serine/threonine-protein kinase (Homo sapiens) (UniProt Q9Y243); assay: Inhibition of wild-type human partial length AKT3 expressed in bacterial expression system assessed as residual activity at 1 uM by Kinomescan method relative to control
[2] = target: Tyrosine-protein kinase receptor TYRO3 (Homo sapiens) (UniProt Q06418); assay: Inhibition of wild-type human partial length TYRO3 (S497 to T814 residues) expressed in bacterial expression system assessed as residual activity at 1 uM by Kinomescan method relative to control
[3] = target: Hepatocyte growth factor receptor (Homo sapiens) (UniProt P08581); assay: Inhibition of wild-type human partial length MET (D1010 to S1367 residues) expressed in bacterial expression system assessed as residual activity at 1 uM by Kinomescan method relative to control
Sequence of Hepatocyte growth factor receptor (Homo sapiens) (P08581 whole entry, the tested form may be a part): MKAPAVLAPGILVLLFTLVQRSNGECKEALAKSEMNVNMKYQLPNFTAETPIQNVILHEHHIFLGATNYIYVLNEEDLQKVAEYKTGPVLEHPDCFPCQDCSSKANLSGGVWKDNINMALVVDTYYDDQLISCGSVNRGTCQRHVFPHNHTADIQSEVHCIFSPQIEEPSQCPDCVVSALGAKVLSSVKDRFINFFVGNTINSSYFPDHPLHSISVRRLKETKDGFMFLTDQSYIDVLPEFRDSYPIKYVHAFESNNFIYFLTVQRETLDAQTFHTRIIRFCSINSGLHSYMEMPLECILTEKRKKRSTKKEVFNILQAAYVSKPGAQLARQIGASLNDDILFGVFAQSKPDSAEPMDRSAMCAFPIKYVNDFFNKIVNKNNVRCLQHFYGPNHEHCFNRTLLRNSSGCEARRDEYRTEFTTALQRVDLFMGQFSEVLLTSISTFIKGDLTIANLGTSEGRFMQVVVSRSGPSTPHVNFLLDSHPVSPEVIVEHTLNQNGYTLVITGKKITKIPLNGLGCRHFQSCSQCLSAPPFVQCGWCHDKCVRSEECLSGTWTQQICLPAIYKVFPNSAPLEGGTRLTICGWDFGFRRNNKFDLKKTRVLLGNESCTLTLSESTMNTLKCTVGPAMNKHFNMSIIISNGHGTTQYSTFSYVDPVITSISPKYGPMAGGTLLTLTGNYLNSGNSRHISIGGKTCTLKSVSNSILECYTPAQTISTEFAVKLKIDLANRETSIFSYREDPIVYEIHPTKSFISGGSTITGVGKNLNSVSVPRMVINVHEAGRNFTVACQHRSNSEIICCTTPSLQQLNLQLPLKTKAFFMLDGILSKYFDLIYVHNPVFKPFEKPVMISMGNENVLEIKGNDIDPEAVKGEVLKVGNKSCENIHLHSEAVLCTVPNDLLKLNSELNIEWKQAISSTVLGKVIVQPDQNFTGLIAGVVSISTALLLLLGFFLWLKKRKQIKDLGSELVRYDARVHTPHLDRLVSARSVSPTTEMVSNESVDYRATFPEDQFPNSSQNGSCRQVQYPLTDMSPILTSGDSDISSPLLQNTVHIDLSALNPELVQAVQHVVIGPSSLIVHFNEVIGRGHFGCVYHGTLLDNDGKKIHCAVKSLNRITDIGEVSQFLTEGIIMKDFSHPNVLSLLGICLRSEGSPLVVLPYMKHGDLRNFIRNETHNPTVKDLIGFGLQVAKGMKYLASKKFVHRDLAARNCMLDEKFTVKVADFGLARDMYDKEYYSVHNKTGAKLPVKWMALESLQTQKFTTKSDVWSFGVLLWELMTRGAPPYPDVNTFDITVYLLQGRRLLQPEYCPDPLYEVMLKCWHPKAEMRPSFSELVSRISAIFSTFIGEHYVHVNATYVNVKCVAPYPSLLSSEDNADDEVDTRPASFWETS

[4] = target: Protein kinase C iota type (Homo sapiens) (UniProt P41743); assay: Inhibition of wild-type human partial length PRKCI (H215 to V587 residues) expressed in mammalian expression system assessed as residual activity at 1 uM by Kinomescan method relative to control
[5] = target: Serine/threonine-protein kinase D1 (Homo sapiens) (UniProt Q15139); assay: Inhibition of wild-type human partial length PRKD1 (G551 to E870 residues) expressed in bacterial expression system assessed as residual activity at 1 uM by Kinomescan method relative to control
U2932 = assay: Induction of apoptosis in human U2932 cells assessed as induction of caspase-3 cleavage after 48 hrs by immunoblot; assay type: functional, cell-based
[6] = target: Glycogen synthase kinase-3 beta (Homo sapiens) (UniProt P49841); assay: Inhibition of wild-type human full length GSK3B (M1 to T433 residues) expressed in mammalian expression system assessed as residual activity at 1 uM by Kinomescan method relative to control
[7] = test system: Mast/stem cell growth factor receptor Kit (Homo sapiens), P10721 [A829P]; assay: Inhibition of human partial length KIT A829P mutant (I571 to D952 residues) expressed in mammalian expression system assessed as residual activity at 1 uM by Kinomescan method relative to control
[8] = test system: Tyrosine-protein kinase ABL1 (Homo sapiens), P00519 [F317I]; assay: Inhibition of human phosphorylated ABL1 F317I mutant (S229 to K512 residues) expressed in mammalian expression system assessed as residual activity at 1 uM by Kinomescan method relative to control
Sequence of Tyrosine-protein kinase ABL1 (Homo sapiens), P00519 [F317I] (P00519 whole entry F317I, the tested form may be a part, canonical isoform): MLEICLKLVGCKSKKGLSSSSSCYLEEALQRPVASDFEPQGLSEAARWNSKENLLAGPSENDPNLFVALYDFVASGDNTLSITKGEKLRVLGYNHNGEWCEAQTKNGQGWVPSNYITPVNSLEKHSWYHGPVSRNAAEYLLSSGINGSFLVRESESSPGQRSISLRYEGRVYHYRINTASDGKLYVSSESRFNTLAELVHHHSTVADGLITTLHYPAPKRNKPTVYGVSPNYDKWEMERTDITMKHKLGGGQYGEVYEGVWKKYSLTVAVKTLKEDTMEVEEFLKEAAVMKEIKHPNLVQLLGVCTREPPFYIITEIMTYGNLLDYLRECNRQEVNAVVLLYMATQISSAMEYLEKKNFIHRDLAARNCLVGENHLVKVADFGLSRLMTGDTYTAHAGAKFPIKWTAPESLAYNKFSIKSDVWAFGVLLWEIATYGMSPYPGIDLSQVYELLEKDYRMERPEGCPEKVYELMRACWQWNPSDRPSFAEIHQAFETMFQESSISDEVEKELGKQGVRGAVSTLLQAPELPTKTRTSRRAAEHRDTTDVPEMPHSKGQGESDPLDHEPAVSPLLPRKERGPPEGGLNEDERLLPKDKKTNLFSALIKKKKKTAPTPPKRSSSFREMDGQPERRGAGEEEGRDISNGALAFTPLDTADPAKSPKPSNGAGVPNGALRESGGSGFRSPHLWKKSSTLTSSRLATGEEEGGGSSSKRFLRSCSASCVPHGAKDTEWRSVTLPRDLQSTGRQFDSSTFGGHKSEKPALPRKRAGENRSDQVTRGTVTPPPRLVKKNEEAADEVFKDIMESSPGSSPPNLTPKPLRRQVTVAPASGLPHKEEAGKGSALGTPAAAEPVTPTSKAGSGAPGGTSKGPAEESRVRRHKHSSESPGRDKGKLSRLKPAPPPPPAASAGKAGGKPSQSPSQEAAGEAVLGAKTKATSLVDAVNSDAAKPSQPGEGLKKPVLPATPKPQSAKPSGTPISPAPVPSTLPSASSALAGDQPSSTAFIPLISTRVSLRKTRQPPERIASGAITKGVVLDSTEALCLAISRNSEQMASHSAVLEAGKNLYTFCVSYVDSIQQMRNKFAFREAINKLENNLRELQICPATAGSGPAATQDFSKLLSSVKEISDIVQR

[9] = test system: Phosphatidylinositol 4,5-bisphosphate 3-kinase catalytic subunit alpha isoform (Homo sapiens), P42336 [E545A]; assay: Inhibition of human partial length PIK3CA E545A mutant (R108 to N1068 residues) expressed in mammalian expression system assessed as residual activity at 1 uM by Kinomescan method relative to control
[10] = test system: Epidermal growth factor receptor (Homo sapiens), P00533 [L861Q]; assay: Inhibition of human partial length EGFR L861Q mutant (R669 to V1011 residues) expressed in bacterial expression system assessed as residual activity at 1 uM by Kinomescan method relative to control
[11] = target: Ephrin type-A receptor 7 (Homo sapiens) (UniProt Q15375); assay: Inhibition of wild-type human partial length EPHA7 (Y608 to S912 residues) expressed in bacterial expression system assessed as residual activity at 1 uM by Kinomescan method relative to control
[12] = target: SRSF protein kinase 2 (Homo sapiens) (UniProt P78362); assay: Inhibition of wild-type human full length SRPK2 (M1 to S686 residues) expressed in bacterial expression system assessed as residual activity at 1 uM by Kinomescan method relative to control
[13] = target: Serine/threonine-protein kinase LATS2 (Homo sapiens) (UniProt Q9NRM7); assay: Inhibition of wild-type human partial length LATS2 (Q641 to V1088 residues) expressed in mammalian expression system assessed as residual activity at 1 uM by Kinomescan method relative to control
[14] = target: Phosphatidylinositol 4,5-bisphosphate 3-kinase catalytic subunit delta isoform (Homo sapiens) (UniProt O00329); assay: Inhibition of wild-type human partial length PIK3CD (R108 to Q1044 residues) expressed in mammalian expression system assessed as residual activity at 1 uM by Kinomescan method relative to control
[15] = target: Serine/threonine-protein kinase RIO1 (Homo sapiens) (UniProt Q9BRS2); assay: Inhibition of wild-type human full length RIOK1 (M1 to K568 residues) expressed in bacterial expression system assessed as residual activity at 1 uM by Kinomescan method relative to control
Sequence of Serine/threonine-protein kinase RIO1 (Homo sapiens) (Q9BRS2 whole entry, the tested form may be a part): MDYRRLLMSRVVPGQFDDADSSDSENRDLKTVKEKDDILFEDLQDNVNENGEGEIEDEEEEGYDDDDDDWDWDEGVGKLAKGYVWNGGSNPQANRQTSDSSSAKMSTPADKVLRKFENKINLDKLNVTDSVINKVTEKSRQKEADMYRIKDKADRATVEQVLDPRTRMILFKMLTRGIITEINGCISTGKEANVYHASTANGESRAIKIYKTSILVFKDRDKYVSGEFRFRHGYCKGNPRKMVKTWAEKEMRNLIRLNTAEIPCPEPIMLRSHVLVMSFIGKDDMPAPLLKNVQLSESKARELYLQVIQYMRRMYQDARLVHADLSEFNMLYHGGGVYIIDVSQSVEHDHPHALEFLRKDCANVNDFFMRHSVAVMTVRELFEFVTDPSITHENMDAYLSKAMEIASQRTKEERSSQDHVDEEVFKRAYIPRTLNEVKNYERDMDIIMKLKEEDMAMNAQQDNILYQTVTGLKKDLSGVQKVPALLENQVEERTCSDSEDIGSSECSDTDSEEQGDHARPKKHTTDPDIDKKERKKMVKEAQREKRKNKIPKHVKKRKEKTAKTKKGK

[16] = test system: Epidermal growth factor receptor (Homo sapiens), P00533 [UNDEFINED MUTATION]; assay: Inhibition of human partial length EGFR L747-E749del/A750P mutant expressed in bacterial expression system assessed as residual activity at 1 uM by Kinomescan method relative to control
[17] = target: Activin receptor type-1-like (Homo sapiens) (UniProt P37023); assay: Inhibition of wild-type human ACVRL1 (L164 to Q503 residues) expressed in bacterial expression system assessed as residual activity at 1 uM by Kinomescan method relative to control
Sequence of Activin receptor type-1-like (Homo sapiens) (P37023 whole entry, the tested form may be a part): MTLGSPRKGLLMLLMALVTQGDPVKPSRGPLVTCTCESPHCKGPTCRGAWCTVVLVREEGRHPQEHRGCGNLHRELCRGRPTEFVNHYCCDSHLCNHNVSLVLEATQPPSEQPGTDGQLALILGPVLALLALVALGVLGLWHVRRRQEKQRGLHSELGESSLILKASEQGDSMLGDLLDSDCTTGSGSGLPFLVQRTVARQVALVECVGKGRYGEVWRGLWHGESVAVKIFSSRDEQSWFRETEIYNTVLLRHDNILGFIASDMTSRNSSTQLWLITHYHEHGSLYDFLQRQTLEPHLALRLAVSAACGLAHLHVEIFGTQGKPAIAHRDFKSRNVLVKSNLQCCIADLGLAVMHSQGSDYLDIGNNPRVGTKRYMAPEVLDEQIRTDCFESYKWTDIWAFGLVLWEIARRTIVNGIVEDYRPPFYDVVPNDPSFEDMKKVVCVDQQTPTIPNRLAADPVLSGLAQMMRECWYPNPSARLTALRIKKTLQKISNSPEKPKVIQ

[18] = target: Serine/threonine-protein kinase Chk2 (Homo sapiens) (UniProt O96017); assay: Inhibition of wild-type human partial length CHEK2 (S253 to E574 residues) expressed in bacterial expression system assessed as residual activity at 1 uM by Kinomescan method relative to control
NB-4 = assay: Growth inhibition of human NB4 cells; assay type: functional; conditions: Homo sapiens, NB-4
[19] = Tmax in Sprague-Dawley rat at 10 mg/kg, po by LC-MS/MS method; assay type: ADME, organism-based; conditions: in vivo
[20] = target: Platelet-derived growth factor receptor beta (Homo sapiens) (UniProt P09619); assay: Inhibition of wild-type human partial length PDGFRB (V582 to Y1009 residues) expressed in bacterial expression system assessed as residual activity at 1 uM by Kinomescan method relative to control
Sequence of Platelet-derived growth factor receptor beta (Homo sapiens) (P09619 whole entry, the tested form may be a part, canonical isoform): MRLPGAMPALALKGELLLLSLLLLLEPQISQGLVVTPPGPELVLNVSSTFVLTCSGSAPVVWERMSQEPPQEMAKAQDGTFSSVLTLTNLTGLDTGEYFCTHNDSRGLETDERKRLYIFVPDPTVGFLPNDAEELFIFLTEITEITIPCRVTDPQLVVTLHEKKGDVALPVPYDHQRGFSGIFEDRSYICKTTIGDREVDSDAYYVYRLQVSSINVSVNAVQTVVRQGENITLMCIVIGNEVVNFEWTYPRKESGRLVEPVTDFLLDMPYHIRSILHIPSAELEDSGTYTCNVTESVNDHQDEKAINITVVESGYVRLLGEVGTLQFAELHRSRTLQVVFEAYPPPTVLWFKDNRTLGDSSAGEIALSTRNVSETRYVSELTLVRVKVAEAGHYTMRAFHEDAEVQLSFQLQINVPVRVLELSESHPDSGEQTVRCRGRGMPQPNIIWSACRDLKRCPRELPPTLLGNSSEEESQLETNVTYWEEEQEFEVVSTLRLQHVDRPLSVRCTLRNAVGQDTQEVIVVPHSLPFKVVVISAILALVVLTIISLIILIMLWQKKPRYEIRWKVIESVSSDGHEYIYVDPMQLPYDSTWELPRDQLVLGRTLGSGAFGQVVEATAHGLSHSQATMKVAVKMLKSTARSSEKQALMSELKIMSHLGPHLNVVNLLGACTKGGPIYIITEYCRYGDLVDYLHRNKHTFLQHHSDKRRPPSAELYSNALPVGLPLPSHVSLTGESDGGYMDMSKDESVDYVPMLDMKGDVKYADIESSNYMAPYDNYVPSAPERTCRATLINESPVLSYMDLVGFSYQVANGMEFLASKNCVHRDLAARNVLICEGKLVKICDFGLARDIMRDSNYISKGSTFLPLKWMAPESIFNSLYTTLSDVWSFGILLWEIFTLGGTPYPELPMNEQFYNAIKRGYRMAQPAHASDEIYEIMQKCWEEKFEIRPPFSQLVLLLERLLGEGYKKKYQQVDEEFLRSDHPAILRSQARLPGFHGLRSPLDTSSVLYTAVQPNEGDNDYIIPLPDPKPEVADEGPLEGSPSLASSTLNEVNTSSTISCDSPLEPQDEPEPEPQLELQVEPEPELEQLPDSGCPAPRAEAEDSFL

[21] = target: Casein kinase I isoform delta (Homo sapiens) (UniProt P48730); assay: Inhibition of wild-type human full length CSNK1D (M1 to K409 residues) expressed in bacterial expression system assessed as residual activity at 1 uM by Kinomescan method relative to control
[22] = target: Tyrosine-protein kinase Mer (Homo sapiens) (UniProt Q12866); assay: Inhibition of wild-type human partial length MERTK (R557 to L884 residues) expressed in bacterial expression system assessed as residual activity at 1 uM by Kinomescan method relative to control
[23] = target: Serine/threonine-protein kinase NLK (Homo sapiens) (UniProt Q9UBE8); assay: Inhibition of wild-type human full length NLK (M13 to E527 residues) expressed in bacterial expression system assessed as residual activity at 1 uM by Kinomescan method relative to control
[24] = target: Mitogen-activated protein kinase kinase kinase 19 (Homo sapiens) (UniProt Q56UN5); assay: Inhibition of wild-type human partial length YSK4 (T1019 to H1328 residues) expressed in mammalian expression system assessed as residual activity at 1 uM by Kinomescan method relative to control

With `C=CC(=O)Nc1cc(Nc2cc(-c3cccc(NC(=O)c4ccc(C(C)(C)C)cc4)c3C)cn(C)c2=O)ccc1C(=O)N1CCOCC1` as the molecule, how does the Activity [1] read?
Its Activity is 95%.

And the Activity [2]?
Its Activity is 75%.

What about the Activity [3] of the same molecule?
Its Activity is 96%.

What about the Activity [4] of the same molecule?
The Activity was 100%.

What about the Activity [5] of the same molecule?
Its Activity is 100%.

And the Activity (U2932)?
The Activity was “Dose-dependent effect”.

And the Activity [6]?
Its Activity is 87%.

What about the Activity [7] of the same molecule?
Its Activity is 93%.

And the Activity [8]?
The Activity was 97%.

And the Activity [9]?
The Activity was 96%.

What about the Activity [10] of the same molecule?
Its Activity is 100%.

And the Activity [11]?
The Activity was 98%.

What about the Activity [12] of the same molecule?
The Activity was 94%.

And the Activity [13]?
The Activity was 100%.

What about the Activity [14] of the same molecule?
Its Activity is 100%.

And the Activity [15]?
The Activity was 100%.

What about the Activity [16] of the same molecule?
Its Activity is 94%.

What about the Activity [17] of the same molecule?
The Activity was 89%.

And the Activity [18]?
Its Activity is 87%.

And the GI50 (NB-4)?
The GI50 was 6.6 µM.

What about the Tmax [19] of the same molecule?
Its Tmax is 30 min.

What about the Activity [20] of the same molecule?
Its Activity is 92%.

And the Activity [21]?
The Activity was 99%.

And the Activity [22]?
The Activity was 100%.

What about the Activity [23] of the same molecule?
The Activity was 63%.

And the Activity [24]?
The Activity was 100%.
